This passage reports EC50 results from patent US20120122969A1, “TREATMENT OF PERVASIVE DEVELOPMENTAL DISORDERS WITH TOCOTRIENOLS OR TOCOTRIENOL ENRICHED EXTRACTS” (AMPERE LIFE SCIENCES, INC., priority 2009, published 2012).

This test concerns Human Dermal Fibroblasts from Autistic Patients. Nature of the test: Rescue of ASD fibroblasts stressed by addition of L-buthionine-(S,R)-sulfoximine (BSO), Calcein AM viability readout. In kind it is cell-based. Conditions: 1 mM BSO, 48 hours, Calcein AM fluorescence, viability relative to non-BSO treated fibroblasts (100%); read-out: EC50 of protection against ASD (rescue of BSO-stressed ASD fibroblasts). On the procedure:
A screen was performed to identify compounds effective for the amelioration of ASD. Test samples, and solvent controls were tested for their ability to rescue ASD fibroblasts stressed by addition of L-buthionine-(S,R)-sulfoximine (BSO).
MEM (a medium enriched in amino acids and vitamins, catalog no. Gibco 11965) and Fetal Calf Serum were obtained from Invitrogen. Basic fibroblast growth factor and epidermal growth factor were purchased from PeproTech. Penicillin-streptomycin-glutamine mix, L-buthionine (S,R)-sulfoximine, and insulin from bovine pancreas were purchased from Sigma. Calcein AM was purchased from Molecular Probes. Cell culture medium (ATP) was made by combining 75 ml Fetal Calf Serum, 100 U/ml penicillin, 100 μg/ml streptomycin, 2 mM glutamine, 10 ng/ml EGF, and 10 ng/ml bFGF; MEM EBS was added to make the volume up to 500 ml. A 10 mM BSO solution was prepared by dissolving 444 mg BSO in 200 ml of medium with subsequent filter-sterilization. […]
100 μl of PBS containing 1.2 μM Calcein AM were then added to each well. […] After that time the PBS was discarded, the plate gently tapped on a paper towel and fluorescence (excitation/emission wavelengths of 485 nm and 525 nm, respectively) was read on a Gemini fluorescence reader. […]
The viability of non-BSO treated fibroblasts was set as 100%, and the viability of the BSO- and compound-treated cells was calculated as relative to this value.

Broadly, the EC50 is the midpoint of the concentration-response curve. Consider alpha-tocotrienol, for which the EC50 was < 50 nM.
